The source of these data is ChEMBL document CHEMBL1157067, “Agelastatin E, agelastatin F, and benzosceptrin C from the marine sponge Agelas dendromorpha” (2010).

The source made the active and inactive calls. The calls are words filed in the database; no cut-off is given here.

In the first experiment the test system is KB. Kind of experiment: Cytotoxicity against human KB cells at 3 uM. Format: functional.
With `CN1C(=O)N[C@H]2[C@@H]3NC(=O)c4ccc(Br)n4[C@@H]3C[C@]21O` [AGELASTATIN A], the Activity came out at 100%.

The test system of another experiment is KB. Kind of experiment: Cytotoxicity against human KB cells at 30 uM. Format: functional.
Regarding `C[C@]1(COC(=O)c2cc(Br)c[nH]2)C[C@@H](C(=O)O)N=CN1`, the result was inactive.
Turning to `Cc1c[nH]c(=O)[nH]c1=O`, the outcome was inactive.
Consider `O=C1N[C@H]2[C@@H]3NC(=O)c4ccc(Br)n4[C@@H]3C[C@@]2(O)N1`, for which the outcome was inactive.
Take `O=C1NCC(O)n2c1cc(Br)c2Br` (centres undefined): the result was inactive.
In the case of `N=C1N=C(NCCS(=O)(=O)O)/C(=C/CCNC(=O)c2cc(Br)c(Br)[nH]2)N1`, the result was inactive.
For `N=C1N=C(NCCS(=O)(=O)O)/C(=C/C(O)CNC(=O)c2cc(Br)c(Br)[nH]2)N1` (centres undefined), the result was inactive.
Regarding `CO[C@@]12C[C@@H]3[C@@H](NC(=O)c4ccc(Br)n43)[C@@H]1NC(=O)N2C`, the outcome was inactive.
The same measure, in the same setting: next, `O=C1N[C@H]2[C@@H]3NC(=O)c4cc(Br)c(Br)n4[C@@H]3C[C@@]2(O)N1`: “inactive”; `NC(=O)c1cc(Br)c(Br)[nH]1`: “inactive”; `c1ccc2c(-c3c[nH]c(-c4c[nH]c5ccccc45)n3)c[nH]c2c1`: “inactive”.
For the compound `Nc1nc([C@H]2[C@H](CNC(=O)c3cc(Br)c[nH]3)[C@@H](CNC(=O)c3cc(Br)c[nH]3)[C@@H]2c2c[nH]c(N)n2)c[nH]1`, the result was inactive.
Still for that read-out and setting: next, `CN1C(=O)N[C@H]2[C@@H]3NC(=O)c4ccc(Br)n4[C@@H]3C[C@]21O` [AGELASTATIN A]: 100%; `Nc1nc2c([nH]1)c1c(c3[nH]c(N)nc32)[C@H](CNC(=O)c2cc(Br)c(Br)[nH]2)[C@H]1CNC(=O)c1cc(Br)c(Br)[nH]1`: “inactive”.
